Measured values as given in PMC11009625, “Antibiotic class with potent in vivo activity targeting lipopolysaccharide synthesis in Gram-negative bacteria” (Proceedings of the National Academy of Sciences of the …, 2024).
Values after ≈ are worked out from the molar mass of the structure shown. Where two headings read alike, the source gives them in different places.

Assays:
[1] = test system: K. pneumoniae SSI #3010 (EN124); experiment: Neutropenic mouse peritonitis model, K. pneumoniae; assay type: in vivo, mice; details: single sc dose; for ED50: Klebsiella pneumoniae; for ED50 / 1-log effective dose, blood, K. pneumoniae / 2-log effective dose, blood, K. pneumoniae / 1-log effective dose, peritoneal fluid, K. pneumoniae / 2-log effective dose, peritoneal fluid, K. pneumoniae: modeled efficacy curves; for Efficacy against K. pneumoniae compared with ciprofloxacin (13 mg/kg): doses ≥50 mg/kg, mouse peritonitis
Method: PK and safety studies were done the Latvian Institute for Organic Synthesis (Riga, Latvia) and in vivo efficacy studies were done at Statens Serum Institut (Copenhagen, Denmark). Assays were done in accordance with the relevant permits at the respective sites (SI Appendix). For PK studies, plasma samples were taken from mice dosed subcutaneously and the samples were analyzed by UPLC/MS/MS. For in vivo efficacy studies, neutropenic mice were infected intraperitoneally with 10^6 bacteria and treated with subcutaneously with test compounds 1 h after infection. The mice were euthanized 4 h after treatment and serially diluted samples of blood and peritoneal fluid were plated onto blood agar plates. Complete experimental details available in SI Appendix.
Lantmännen) and water. The experimental procedures were performed in accordance with the guidelines of the European Community and local laws and policies (Directive 2010/63/EU), and all of the procedures were approved by Food and Veterinary Service, Riga, Latvia. […]
Bacterial strains and inoculum. E. coli EC 106-09 (EN122) and K. pneumoniae SSI #3010 (EN124) are clinical isolates from Denmark. Bacterial suspensions for inoculation of mice were prepared […]
at room temperature from fresh overnight cultures on 5% blood agar plates produced by SSI diagnostica (Copenhagen Denmark). The inoculum was prepared immediately before inoculation by suspending colonies in sterile 0.9% saline to an optical density of 0.13 at 540 nm, giving a density of 10^8 CFU/ml and further diluted in 0.9% saline to 2 x 10^6 CFU/ml before injecting into the mice. For each experiment, the size of the inoculum was determined by making ten-fold dilutions in 0.9% saline, of which 20 µl was plated on 5% blood agar plates with subsequent counting of colonies after incubation overnight at 35°C in ambient air.
Mice. Outbred female CD-1 mice 26-30 gram (Envigo, Netherlands) were housed at the animal facility at Statens Serum Institut. The temperature was 22 °C +/- 2 °C and the humidity was 55 +/- 10%. The mice were housed in individually ventilated type 3 macrolone cages with bedding from Tapvei. The air changes per hour were approximately 8-12 times (70-73 times per hours inside cages), and light/dark period was in 12-hours interval of 6 a.m.- 6 p.m./6 p.m – 6 a.m.
The mice had ad libitum access to domestic quality drinking water and food Teklad Global diet 2916C-Envigo) and occasionally peanuts and sunflower seeds (Køge Korn A/S). Further, the animals were offered Enviro-Dri nesting material and cardboard houses (Bio-serv).
Mouse peritonitis model. The mice were rendered neutropenic by injecting 0.5 mL cyclophosphamide solution, 200 mg/kg intraperitoneally at 4 days and 100 mg/kg at 1 day prior to inoculation. 1 h before inoculation, mice were treated orally with […] Nurofen (20 mg ibuprofen/mL corresponding to approximately 30 mg/kg) as a pain relief. Inoculation was performed by intraperitoneal injection of 0.5 ml of the bacterial suspension containing log 6
CFU. The mice were treated subcutaneously with 0.25 – 0.30 mL based on weight, in the neck region with a single dose of compound at 1 hour post inoculation. Mice were monitored for clinical signs of discomfort. 4 h after treatment the mice were anesthetized and blood was collected by heart puncture into EDTA tubes and thereafter mice were euthanized by cervical dislocation and peritoneal washes were performed by injecting 2 ml of sterile saline intraperitoneally, followed by gentle massage of the abdomen and opening the peritoneum to collect fluid. Full blood and peritoneal fluids were serially diluted (ten-fold dilutions) and 20 µl was plated on blood agar plates produced at the SSI diagniostica (Copenhagen, Denmark) with subsequent counting of colonies after incubation overnight at 35°C in ambient. All animal experiments were approved by the National Committee of Animal Ethics – Animal Experiment Inspectorate under the Danish Ministry of Justice.
Statistical analyses. […]

K. pneumoniae ATCC 13883 = experiment: Frequency of resistance and agar MIC, K. pneumoniae; assay type: cell-based; details: Klebsiella pneumoniae, ATCC13883, read-out: Agar MIC K. pneumoniae ATCC 13883
Method: Minimum inhibitory concentration (MIC) values were determined according to the Clinical Laboratory Standards Institute guidelines. Frequency of resistance was determined by plating ~5 × 10^8 bacterial cells on agar-solidified media plates containing test compound at concentrations corresponding to four times the measured solid-media MIC of the strains. Colonies were counted after 24 h, restreaked onto media containing the same concentration of compound, and the MIC remeasured against the assayed compound. Genomic DNA from isolated clones was sequenced by paired-end sequencing on an Illumina MiSeq device. Complete experimental details available in SI Appendix. […]
Minimum inhibitory concentration (MIC) determination. […] Appropriate inoculation suspension density was assessed using a Sensititre Nephelometer with a Sensititre 0.5 […]
Frequency of Resistance. Frequency of resistance was assessed by spread plating between […] cfu of a freshly-grown culture of the strain of interest on plates containing a concentration of compound corresponding to 4 times the MIC of the strain (as determined by agar-dilution MIC). […] The frequency of resistance was determined by dividing the number of colonies obtained on the selective plates after 24 hours of growth by the calculated total population plated. […]

[2] = blood, read-out: ED50, blood, K. pneumoniae
[3] = peritoneal fluid, read-out: ED50, peritoneal fluid, K. pneumoniae

Row | Structure (SMILES) | ED50 [1, 2] [mg/kg] | ED50 [1, 3] [mg/kg] | Efficacy against K. pneumoniae compared with ciprofloxacin (13 mg/kg) [1] | 1-log effective dose, blood, K. pneumoniae ([1]; blood) [mg/kg] | 2-log effective dose, blood, K. pneumoniae ([1]; blood) [mg/kg] | 1-log effective dose, peritoneal fluid, K. pneumoniae ([1]; peritoneal fluid) [mg/kg] | 2-log effective dose, peritoneal fluid, K. pneumoniae ([1]; peritoneal fluid) [mg/kg] | MIC (K. pneumoniae ATCC 13883) [µg/mL]
1 | Cc1cc(C#N)nc(N2CCN(S(=O)(=O)c3ccc(NC(=O)c4cc(CN5CC(CN)C5)ccc4N(C)S(C)(=O)=O)cc3)CC2)n1 [EBL-3647] | 21 | 21 | efficacy similar to ciprofloxacin | 21 | 27 | 22.8 | 37.3 | 0.5 (≈ 0.749 µM)
2 | Cc1cc(C#N)nc(N2CCN(S(=O)(=O)c3ccc(NC(=O)c4cc(CNCCCN)ccc4N(C)S(C)(=O)=O)cc3)CC2)n1.Cl.Cl [EBL-3599] | 20.2 | 19.8 | efficacy similar to ciprofloxacin | 20.2 | 28 | 20.4 | 30.7 | 0.5
